Experimental data taken from US20240309365A1, “MODULATING TRANSCRIPTIONAL CONDENSATES” (Whitehead Institute for Biomedical Research, priority 2020, published 2024).

How the values were obtained:
[1] = test system: Med1-GFP condensates in mESCs; assay: Condensate size in Med1-GFP mESCs after transcription inhibition; type: cell-based, mouse; conditions: 30 minutes; 100 μM DRB or 1 μM Actinomycin-D; 3D super-resolution microscopy
Protocol: (§1) For small molecule inhibition experiments, cells were treated with 100 μM DRB (Sigma), or 1 μM Actinomycin-D (Sigma) in 2i media (detailed above) for 30 minutes, then imaged. For wash-out experiments, media was replaced with fresh 2i media and cells were allowed to recover for 1 hour, then the cells were imaged.
Cells with endogenously-tagged Med1-GFP (Sabari et al., 2018) were plated on glass-bottom dishes (Mattek) coated with poly-L-ornithine (Sigma) and laminin (ThermoFisher). Mock (DMSO) and treated cells were imaged on a LSM 880 Confocal Microscope with Airyscan to obtain super-resolution z-stacks for at least 8 different fields containing multiple cells. For quantification, a manual threshold was applied equally across all conditions to remove background, and the size of Med1-GFP puncta was quantified in 3D using the 3D object counter plugin (Fiji/ImageJ).

[2] = test system: Med19 condensates in mESCs; assay: Condensate lifetime in Med19-Halo mESCs by tcPALM; type: cell-based, mouse
Protocol: as §1
HaloTag was endogenously knocked into 5′-end of Med19 via homology-directed repair (HDR) in mouse embryonic stem cells (R1 mESCs). Three single-guide RNAs (sgRNAs) targeting+/−100 bps from the start codons of Med19 gene were designed using the web-based CRISPR Design tool (http://crispr.mit.edu) and integrated into a Streptococcus pyogenes Cas9 vector (Addgene #62988) for standard CRISPR/Cas9 editing. Single positive colonies were sorted by fluorescence-activated cell sorting (FACS) and validated under the microscope. […]
Photo-activation localization microscopy (PALM) imaging was performed using a Nikon Eclipse Ti microscope with a 100× oil immersion objective (NA 1.40) (Nikon, Tokyo, Japan). […] Med19-Halo cluster lifetimes were calculated as previously described using the qSR software (dark time tolerance=20 frames, min cluster size=50) (Andrews et al., 2018), and a cumulative distribution was generated using Prism software (GraphPad).

Which “increase in volume of Med1-GFP condensates” value [1] does the source give for `OC[C@H]1O[C@@H](n2cnc3cc(Cl)c(Cl)cc32)[C@H](O)[C@@H]1O` [DRB] here?
Its value is about 2 fold.

And the “lifetime of Med19 condensates versus mock-treated cells” value ([2]; 100 μM DRB, 30 minutes, tcPALM)?
The value was “significantly longer lifetimes”.

What about the “lifetime of Med19 condensates after wash with fresh media” value ([2]; DRB-treated cells washed, 1 hour recovery) of the same compound?
Its value is “recovered to those of the mock-treated condition”.
